Counter-ions that a name gives are not always drawn.
Molecular target: HPK1 (Homo sapiens (Human), UniProt Q92918)
Assay: HPK1 Inhibition Assay (ADP-Glo kinase assay)
Type: biochemical
Details: ATP 10 μM
Method: A stock solution of 10 mM test compound was prepared in DMSO. The compound was prepared by 5-fold and 10-point serial dilutions with HPK1 kinase assay buffer. The HPK1 kinase assay buffer contained 40 mM Tris, pH 7.5; 20 mM MgCl2, 0.1 mg/ml BSA, and 50 μM DTT. 7.5 ng/μl of Active HPK1 (Promega, V4098) and 0.1 μg/ml MBP substrate protein were added to the reaction system. The final concentration of ATP in the HPK1 kinase reaction system was 10 μM. Serial diluted compounds were transferred to the reaction system and incubated at room temperature for 1 hr. 5 μL of ADP-Glo™ Reagent (Promega, V9101) was added and incubated for 40 min to stop the kinase reaction and deplete the unconsumed ATP. […] The luminescence was measured with a plate-reading luminometer.

Chain of HPK1 (Q92918 1-346 limits assumed): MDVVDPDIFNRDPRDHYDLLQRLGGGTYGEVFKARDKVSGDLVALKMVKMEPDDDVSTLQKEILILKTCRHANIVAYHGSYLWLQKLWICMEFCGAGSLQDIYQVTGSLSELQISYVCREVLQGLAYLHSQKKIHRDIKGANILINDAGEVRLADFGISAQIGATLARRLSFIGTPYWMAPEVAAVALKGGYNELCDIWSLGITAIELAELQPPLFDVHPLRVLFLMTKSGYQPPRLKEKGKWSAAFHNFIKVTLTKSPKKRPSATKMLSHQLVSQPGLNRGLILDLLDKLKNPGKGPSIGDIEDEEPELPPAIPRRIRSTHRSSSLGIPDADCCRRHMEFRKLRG

Structure (SMILES) | IC50 [nM]
COCCn1c(C)nc2c(N3CCC[C@H]3CN)c(NC(=O)c3ccnn(-c4c(F)cccc4F)c3=O)ccc21 [Example 45] | < 100
Cc1nc2c(N3CC[C@H](N)C3)c(NC(=O)c3ccnn(-c4c(F)cccc4F)c3=O)ccc2n1C1CCOCC1 [Example 47, (S)—N-(4-(3-aminopyrrolidin-1-yl)-2-methyl-1-(tetrahydro-2H-pyran-4-yl)-1H-benzo[d]imidazol-5-yl)-2-(2,6-difluorophenyl)-3-oxo-2,3-dihydropyridazine-4-carboxamide trifluoroacetate] | 100 to 1000
Cc1nc2c(N3CC[C@H](N)C3)c(NC(=O)c3ccnn(-c4c(F)cccc4F)c3=O)ccc2n1C1CC1 [Example 48, N-{4-[(35)-3-aminopyrrolidin-1-yl]-1-cyclopropyl-2-methyl-1,3-benzodiazol-5-yl}-2-(2,6-difluorophenyl)-3-oxopyridazine-4-carboxamide] | 100 to 1000
COc1cccc(F)c1-n1cccc(C(=O)Nc2cc(F)c3nn(C)cc3c2N2C[C@H]3C[C@@H]2CN3)c1=O [Example 52, N-(4-((1R,4R)-2,5-diazabicyclo[2.2.1]heptan-2-yl)-7-fluoro-2-methyl-2H-indazol-5-yl)-1-(2-fluoro-6-methoxyphenyl)-2-oxo-1,2-dihydropyridine-3-carboxamide] | 100 to 1000
COc1cccc(F)c1-n1cccc(C(=O)Nc2cc(F)c3c(cnn3C)c2N2C[C@H]3C[C@@H]2CN3)c1=O [Example 53, N-(4-((1R,4R)-2,5-diazabicyclo[2.2.1]heptan-2-yl)-7-fluoro-1-methyl-1H-indazol-5-yl)-1-(2-fluoro-6-methoxyphenyl)-2-oxo-1,2-dihydropyridine-3-carboxamide] | 100 to 1000
COc1cccc(F)c1-c1cccc(C(=O)Nc2ccc3c(nc(C)n3C)c2N2CCC[C@H]2CN)[n+]1[O-] [Example 61, 2-((4-((S)-2-(aminomethyl)pyrrolidin-1-yl)-1,2-dimethyl-1H-benzo[d]imidazol-5-yl)carbamoyl)-6-(2-fluoro-6-methoxyphenyl)pyridine 1-oxide] | < 100
COc1cccc(F)c1-c1cccc(C(=O)Nc2ccc3c(nc(C)n3C)c2N2CC[C@H](N)C2)[n+]1[O-] [Example 62, 2-((4-((S)-3-aminopyrrolidin-1-yl)-1,2-dimethyl-1H-benzo[d]imidazol-5-yl)carbamoyl)-6-(2-fluoro-6-methoxyphenyl)pyridine 1-oxide] | 100 to 1000
COc1cccc(F)c1-c1cccc(C(=O)Nc2cc(F)c3nn(C)cc3c2N2C[C@@H](N)C[C@H]2CO)[n+]1[O-] [Example 63, 2-((4-((2S,4S)-4-amino-2-(hydroxymethyl)pyrrolidin-1-yl)-7-fluoro-2-methyl-2H-indazol-5-yl)carbamoyl)-6-(2-fluoro-6-methoxyphenyl)pyridine 1-oxide] | < 100
COc1cccc(F)c1-c1nc(C(=O)Nc2cc(F)ccc2N2C[C@@H]3C[C@H]2CN3)cs1 [Example 64, N-(2-((1S,4S)-2,5-diazabicyclo[2.2.1]heptan-2-yl)-5-fluorophenyl)-2-(2-fluoro-6-methoxyphenyl)thiazole-4-carboxamide] | 100 to 1000
COc1cccc(F)c1-n1nc(C(=O)Nc2ccc3c(nc(C)n3C)c2N2CC[C@H](N)C2)ccc1=O [Example 66, (S)—N-(4-(3-aminopyrrolidin-1-yl)-1,2-dimethyl-1H-benzo[d]imidazol-5-yl)-1-(2-fluoro-6-methoxyphenyl)-6-oxo-1,6-dihydropyridazine-3-carboxamide] | < 100
Cc1nc2c(N3CCC[C@@H](N)C3)c(NC(=O)c3ccc(=O)n(-c4c(F)cccc4F)n3)ccc2n1C [Example 67, (R)—N-(4-(3-aminopiperidin-1-yl)-1,2-dimethyl-1H-benzo[d]imidazol-5-yl)-1-(2,6-difluorophenyl)-6-oxo-1,6-dihydropyridazine-3-carboxamide] | < 100
Cc1nc2c(N3C[C@@H](N)C[C@H]3CO)c(NC(=O)c3ccc(=O)n(-c4c(F)cccc4F)n3)ccc2n1C [Example 68, N-(4-((2S,4S)-4-amino-2-(hydroxymethyl)amidazole-1-yl)-1,2-dimethyl-1H-benzo[d]amidazole-5-yl)-1-(2,6-difluorophenyl)-6-oxo-1,6-dihydropyridazine-3-carboxamide] | 100 to 1000

Second part, the compound after the results:

IC50 [nM] | Structure (SMILES)
< 100 | Cn1c(C(F)(F)F)nc2c(N3CCC[C@H]3CN)c(NC(=O)c3ccnn(-c4c(F)cccc4F)c3=O)ccc21 [Example 40, (S)-N-(4-(2-(aminomethyl)pyrrolidin-1-yl)-1-methyl-2-(trifluoromethyl)-1H-benzo[d]imidazol-5-yl)-2-(2,6-difluorophenyl)-3-oxo-2,3-dihydropyridazine-4-carboxamide]
< 100 | COc1cccc(F)c1-n1nccc(C(=O)Nc2ccc3c(nc(C(F)(F)F)n3C)c2N2CC[C@H](N)C2)c1=O [Example 41, (S)-N-(4-(3-aminopyrrolidin-1-yl)-1-methyl-2-(trifluoromethyl)-1H-benzo[d]imidazol-5-yl)-2-(2-fluoro-6-methoxyphenyl)-3-oxo-2,3-dihydropyridazine-4-carboxamide]
< 100 | Cn1c(-c2ccncc2F)nc2c(N3CC[C@H](N)C3)c(NC(=O)c3ccnn(-c4c(F)cccc4F)c3=O)ccc21 [Example 42, N-{4-[(35)-3-aminopyrrolidin-1-yl]-2-(3-fluoropyridin-4-yl)-1-methyl-1,3-benzodiazol-5-yl}-2-(2,6-difluorophenyl)-3-oxopyridazine-4-carboxamide]
< 100 | COCc1nc2c(N3CC[C@H](N)C3)c(NC(=O)c3ccnn(-c4c(F)cccc4F)c3=O)ccc2n1C [Example 44, (S)—N-(4-(3-aminopyrrolidin-1-yl)-2-(methoxymethyl)-1-methyl-1H-benzo[d]imidazol-5-yl)-2-(2,6-difluorophenyl)-3-oxo-2,3-dihydropyridazine-4-carboxamide]
< 100 | CC(C)c1nc2c(N3CC[C@H](N)C3)c(NC(=O)c3ccnn(-c4c(F)cccc4F)c3=O)ccc2n1C [Example 46, (S)—N-(4-(3-aminopyrrolidin-1-yl)-2-isopropyl-1-methyl-1H-benzo[d]imidazol-5-yl)-2-(2,6-difluorophenyl)-3-oxo-2,3-dihydropyridazine-4-carboxamide]
< 100 | Cc1nc2c(N3CC[C@H](N)C3)c(NC(=O)c3ccnn(-c4c(Cl)cccc4Cl)c3=O)ccc2n1C [Example 49, N-{4-[(35)-3-aminopyrrolidin-1-yl]-1,2-dimethyl-1,3-benzodiazol-5-yl}-2-(2,6-dichlorophenyl)-3-oxopyridazine-4-carboxamide hydrochloride]
< 100 | COc1ccc(F)cc1-n1nccc(C(=O)Nc2ccc3c(nc(C)n3C)c2N2CC[C@H](N)C2)c1=O [Example 50, (S)—N-(4-(3-aminopyrrolidin-1-yl)-1,2-dimethyl-1H-benzo[d]imidazol-5-yl)-2-(5-fluoro-2-methoxyphenyl)-3-oxo-2,3-dihydropyridazine-4-carboxamide]
< 100 | COc1cccc(F)c1-n1cccc(C(=O)Nc2cc(F)ccc2N2C[C@H]3C[C@@H]2CN3)c1=O [Example 51, N-(2-((1R,4R)-2,5-diazabicyclo[2.2.1]heptan-2-yl)-5-fluorophenyl)-1-(2-fluoro-6-methoxyphenyl)-2-oxo-1,2-dihydropyridine-3-carboxamide]
< 100 | COc1cccc(F)c1-n1cccc(C(=O)Nc2ccc3c(nc(C)n3C)c2N2CCC[C@H]2CN)c1=O [Example 54, (S)-N-(4-(2-(aminomethyl)pyrrolidin-1-yl)-1,2-dimethyl-1H-benzo[d]imidazol-5-yl)-1-(2-fluoro-6-methoxyphenyl)-2-oxo-1,2-dihydropyridine-3-carboxamide]
< 100 | COc1cccc(F)c1-c1cccc(C(=O)Nc2cc(F)ccc2N2C[C@H]3C[C@@H]2CN3)[n+]1[O-] [Example 55, 2-((2-((1R,4R)-2,5-diazabicyclo[2.2.1]heptan-2-yl)-5-fluorophenyl)carbamoyl)-6-(2-fluoro-6-methoxyphenyl)pyridine 1-oxide]
< 100 | COc1cccc(F)c1-c1cccc(C(=O)Nc2ccc3c(cnn3C)c2N2C[C@H]3C[C@@H]2CN3)[n+]1[O-] [Example 56, 2-((4-((1R,4R)-2,5-diazabicyclo[2.2.1]heptan-2-yl)-1-methyl-1H-indazol-5-yl)carbamoyl)-6-(2-fluoro-6-methoxyphenyl)pyridine 1-oxide]
< 100 | COc1cccc(F)c1-c1cccc(C(=O)Nc2ccc3nn(C)cc3c2N2C[C@H]3C[C@@H]2CN3)[n+]1[O-] [Example 57, 2-((4-((1R,4R)-2,5-diazabicyclo[2.2.1]heptan-2-yl)-2-methyl-2H-indazol-5-yl)carbamoyl)-6-(2-fluoro-6-methoxyphenyl)pyridine 1-oxide]
< 100 | COc1cccc(F)c1-c1cccc(C(=O)Nc2cc(F)c3c(cnn3C)c2N2CC[C@H](N)C2)[n+]1[O-] [Example 58, 2-((4-((S)-3-aminopyrrolidin-1-yl)-7-fluoro-1-methyl-1H-indazol-5-yl)carbamoyl)-6-(2-fluoro-6-methoxyphenyl)pyridine 1-oxide]
< 100 | COc1cccc(F)c1-c1cccc(C(=O)Nc2cc(F)c3nn(C)cc3c2N2CC[C@H](N)C2)[n+]1[O-] [Example 59, 2-((4-((S)-3-aminopyrrolidin-1-yl)-7-fluoro-2-methyl-2H-indazol-5-yl)carbamoyl)-6-(2-fluoro-6-methoxyphenyl)pyridine 1-oxide]
< 100 | COc1cccc(F)c1-c1cccc(C(=O)Nc2ccc3c(nc(C)n3C)c2N2C[C@@H]3C[C@H]2CN3)[n+]1[O-] [Example 60, 2-((4-((1S,4S)-2,5-diazabicyclo[2.2.1]heptan-2-yl)-1,2-dimethyl-1H-benzo[d]imidazol-5-yl)carbamoyl)-6-(2-fluoro-6-methoxyphenyl)pyridine 1-oxide]

Reference: patent publication US20250122174A1 (Shenzhen Yuanli Shenwan Innovative Medicine Co., Ltd., priority 2022, published 2025)
